The term IC50 denotes the point on the concentration scale where inhibition reaches its midpoint. Read a low IC50 as greater potency.

The target in this assay is T1, JMJD2C (Homo sapiens, UniProt Q9H3R0).
T1 construct: purchased BPS Bioscience 50105
T1 sequence (Q9H3R0 2-372): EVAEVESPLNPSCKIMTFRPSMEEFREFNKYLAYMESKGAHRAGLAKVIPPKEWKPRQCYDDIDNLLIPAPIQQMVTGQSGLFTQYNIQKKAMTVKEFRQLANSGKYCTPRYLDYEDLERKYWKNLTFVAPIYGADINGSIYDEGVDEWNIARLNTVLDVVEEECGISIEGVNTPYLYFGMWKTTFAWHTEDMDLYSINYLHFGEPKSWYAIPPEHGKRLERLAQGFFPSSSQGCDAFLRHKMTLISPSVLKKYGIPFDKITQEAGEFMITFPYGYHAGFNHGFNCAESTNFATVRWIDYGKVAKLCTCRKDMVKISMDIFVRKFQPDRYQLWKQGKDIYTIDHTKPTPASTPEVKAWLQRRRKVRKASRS
Put plainly: JMJD2C in vitro enzyme inhibition assay (TR-FRET). Format: biochemical. An excerpt: This assay determines the ability of a test compound to inhibit Jarid1A, Jarid1B, and JMJD2C demethylase activity. Baculovirus expressed Jarid1A (GenBank Accession #NM_001042603, AA1-1090) was purchased from BPS Bioscience (Cat#50110). Baculovirus expressed Jarid1B (GenBank Accession #NM_006618, AA 2-751) was purchased from BPS Bioscience (Cat #50121) or custom made by MolecularThroughput. Baculovirus expressed JMJD2C (GenBank Accession #BC143571, AA 2-372) was purchased from BPS Bioscience (Cat#50105).
The ability of test compounds to inhibit the activity of JMJD2C was determined in 384-well plate format under the following reaction conditions: 0.3 nM JMJD2C, 300 nM H3K9me3-biotin labeled peptide (Anaspec cat #64360), 2 μM alpha-ketoglutaric acid in assay buffer of 50 mM HEPES, pH7.3, 0.005% Brij35, 0.5 mM TCEP, 0.2 mg/ml BSA, 50 μM sodium L-ascorbate, and 2 μM ammonium iron(II) sulfate. Reaction product was determined quantitatively by TR-FRET after the addition of detection reagent Phycolink Streptavidin-allophycocyanin (Prozyme) and Europium-anti-di-methylated histone H3 lysine 9 (H3K9me2) antibody (PerkinElmer) in the presence of 5 mM EDTA in LANCE detection buffer (PerkinElmer) at a final concentration of 50 nM and 1 nM, respectively.
The assay reaction was initiated by the following: 2 μl of the mixture of 900 nM H3K9me3-biotin labeled peptide and 6 μM alpha-ketoglutaric acid with 2 μl of 11-point serial diluted inhibitor in 3% DMSO were added to each well of the plate, followed by the addition of 2 μl of 0.9 nM JMJD2C to initiate the reaction. The reaction mixture was incubated at room temperature for 30 minutes, and terminated by the addition of 6 μl of 5 mM EDTA in LANCE detection buffer containing 100 nM Phycolink Streptavidin-allophycocyanin and 2 nM Europium-anti-H3K9me2 antibody. Plates were read by EnVisionMultilabel Reader in TR-FRET mode (excitation at 320 nm, emission at 615 nm and 665 nm) after 1 hour incubation at room temperature. A ratio was calculated (665/615) for each well and fitted to determine inhibition constant (IC50).
(In TR-FRET formats the signal depends on donor and acceptor labels being close together.)
`CN(C)c1ccc(Oc2nc(O)c3ccncc3n2)cc1` [Example 59, 2-[4-(dimethylamino)phenoxy]pyrido[3,4-d]pyrimidin-4-ol] gave an IC50 of 100 to 1000 nM.

Regarding `CCC(C)Oc1nc(O)c2ccncc2n1` (centres unmarked) [Example 9, 2-butan-2-yloxy-3H-pyrido[3,4-d]pyrimidin-4-one], the IC50 was at most 100 nM.

In turn, `Cn1cnc(-c2nccc3c(O)nc(OCC4CCOCC4)nc23)c1` [Example 102, 8-(1-methyl-1H-imidazol-4-yl)-2-(oxan-4-ylmethoxy)pyrido[3,4-d]pyrimidin-4-ol] gave a concentration for half-maximal inhibition (IC50) of at most 100 nM.

In the case of `COc1ccc(Oc2nc(O)c3ccncc3n2)cc1OC` [Example 38, 2-(3,4-dimethoxyphenoxy)pyrido[3,4-d]pyrimidin-4-ol], the IC50 lay within 100 to 1000 nM.

In turn, `COCCn1cc(Oc2nc(O)c3ccncc3n2)cn1` [Example 64, 2-{[1-(2-methoxyethyl)-1H-pyrazol-4-yl]oxy}pyrido[3,4-d]pyrimidin-4-ol] returned a 50% inhibitory concentration (IC50) of 100 to 1000 nM.

As for `Cn1cnc(-c2nccc3c(O)nc(OCc4ccccc4Cl)nc23)c1` [Example 105, 2-[(2-chlorophenyl)methoxy]-8-(1-methyl-1H-imidazol-4-yl)pyrido[3,4-d]pyrimidin-4-ol], the IC50 was at most 100 nM.

`O=S(=O)(C1CC1)N1CCC(n2cc(Oc3nc(O)c4ccncc4n3)cn2)CC1` [Example 94, 2-[1-(1-cyclopropylsulfonylpiperidin-4-yl)pyrazol-4-yl]oxypyrido[3,4-d]pyrimidin-4-ol] gave a 50% inhibitory concentration (IC50) of at most 100 nM.

Molecule `COCCCn1cc(Oc2nc(O)c3ccncc3n2)cn1` [Example 65, 2-{[1-(3-methoxypropyl)-1H-pyrazol-4-yl]oxy}pyrido[3,4-d]pyrimidin-4-ol] returned a half-maximal inhibitory concentration (IC50) of 100 to 1000 nM.

For the molecule `O=C(c1ccc(F)cc1)N1CCC(n2cc(Oc3nc(O)c4ccncc4n3)cn2)CC1` [Example 93, (4-fluorophenyl)-[4-[4-(4-hydroxypyrido[3,4-d]pyrimidin-2-yl)oxypyrazol-1-yl]piperidin-1-yl]methanone], the IC50 was at most 100 nM.

Regarding `COCCOc1ccc(Oc2nc(O)c3ccnc(-c4cn(C)cn4)c3n2)cc1` [Example 82, 2-[4-(2-methoxyethoxy)phenoxy]-8-(1-methylimidazol-4-yl)pyrido[3,4-d]pyrimidin-4-ol], the half-maximal inhibitory concentration (IC50) was 100 to 1000 nM.

Molecule `Oc1nc(Oc2ccnc(N3CCOCC3)c2)nc2cnccc12` [Example 97, 2-(2-morpholin-4-ylpyridin-4-yl)oxypyrido[3,4-d]pyrimidin-4-ol] showed an IC50 of 100 to 1000 nM.

Consider `O=C(C1CC1)N1CCC(n2cc(Oc3nc(O)c4ccncc4n3)cn2)CC1` [Example 92, cyclopropyl-[4-[4-(4-hydroxypyrido[3,4-d]pyrimidin-2-yl)oxypyrazol-1-yl]piperidin-1-yl]methanone], for which the IC50 was at most 100 nM.

`CCn1ncc2ccc(Oc3nc(O)c4ccnc(-c5cn(C)cn5)c4n3)cc21` [Example 84, 2-(1-ethylindazol-6-yl)oxy-8-(1-methylimidazol-4-yl)pyrido[3,4-d]pyrimidin-4-ol] displayed an IC50 of 100 to 1000 nM.

As for `CC(=O)N1CCC(n2cc(Oc3nc(O)c4ccncc4n3)cn2)CC1` [Example 90, 1-[4-[4-(4-hydroxypyrido[3,4-d]pyrimidin-2-yl)oxypyrazol-1-yl]piperidin-1-yl]ethanone], the 50% inhibitory concentration (IC50) is at most 100 nM.

`OCCOc1nc(O)c2ccncc2n1` [Example 3, 2-(2-hydroxyethoxy)pyrido[3,4-d]pyrimidin-4-ol] gave a half-maximal inhibitory concentration (IC50) of 100 to 1000 nM.

Take `Cn1cnc(-c2nccc3c(O)nc(Oc4ccc5cnn(C)c5c4)nc23)c1` [Example 83, 8-(1-methylimidazol-4-yl)-2-(1-methylindazol-6-yl)oxypyrido[3,4-d]pyrimidin-4-ol]: the IC50 was 100 to 1000 nM.

Molecule `CC(C)c1cccc(Oc2nc(O)c3ccncc3n2)c1` [Example 39, 2-(3-propan-2-ylphenoxy)pyrido[3,4-d]pyrimidin-4-ol] gave an IC50 of 100 to 1000 nM.

Turning to `O=S(=O)(c1ccccc1)N1CCC(n2cc(Oc3nc(O)c4ccncc4n3)cn2)CC1` [Example 95, 2-[1-[1-(benzenesulfonyl)piperidin-4-yl]pyrazol-4-yl]oxypyrido[3,4-d]pyrimidin-4-ol], the half-inhibitory concentration (IC50) is at most 100 nM.

The molecule `CCCc1cccc(Oc2nc(O)c3ccncc3n2)c1` [Example 58, 2-(3-propylphenoxy)pyrido[3,4-d]pyrimidin-4-ol] registered an IC50 of 100 to 1000 nM.

With `Cn1cnc(-c2nccc3c(O)nc(OCC(F)F)nc23)c1` [Example 77, 2-(2,2-difluoroethoxy)-8-(1-methylimidazol-4-yl)pyrido[3,4-d]pyrimidin-4-ol], the IC50 lay in the range of 100 to 1000 nM.

`COc1nc(O)c2ccnc(-c3cn(C)cn3)c2n1` [Example 68, 2-methoxy-8-(1-methyl-1H-imidazol-4-yl)pyrido[3,4-d]pyrimidin-4-ol] registered an IC50 of 100 to 1000 nM.

Molecule `COc1nc(O)c2ccncc2n1` [Example 8, 2-methoxypyrido[3,4-d]pyrimidin-4-ol] had an IC50 of 100 to 1000 nM.

`Oc1nc(Oc2cccc(F)c2F)nc2cnccc12` [Example 42, 2-(2,3-difluorophenoxy)pyrido[3,4-d]pyrimidin-4-ol] yielded an IC50 of 100 to 1000 nM.

In turn, `Oc1nc(Oc2ccnc(N3CCNCC3)c2)nc2cnccc12` [Example 96, 2-(2-piperazin-1-ylpyridin-4-yl)oxypyrido[3,4-d]pyrimidin-4-ol] displayed an IC50 of 100 to 1000 nM.

As for `Oc1nc(Oc2cnn(C3CCOCC3)c2)nc2cnccc12` [Example 67, 2-{[1-(tetrahydro-2H-pyran-4-yl)-1H-pyrazol-4-yl]oxy}pyrido[3,4-d]pyrimidin-4-ol], the concentration for half-maximal inhibition (IC50) was 100 to 1000 nM.

As for `Cn1cnc(-c2nccc3c(O)nc(OCC(C)(C)O)nc23)c1` [Example 98, 2-(2-hydroxy-2-methylpropoxy)-8-(1-methylimidazol-4-yl)pyrido[3,4-d]pyrimidin-4-ol], the half-maximal inhibitory concentration (IC50) was in the range of 1000 to 10000 nM.

The molecule `Cn1cnc(-c2nccc3c(O)nc(OCc4cccc(Cl)c4Cl)nc23)c1` [Example 106, 2-[(2,3-dichlorophenyl)methoxy]-8-(1-methyl-1H-imidazol-4-yl)pyrido[3,4-d]pyrimidin-4-ol] gave an IC50 of 100 to 1000 nM.

As to `C=CC(=O)N1CCC(n2cc(Oc3nc(O)c4ccncc4n3)cn2)CC1` [Example 91, 1-[4-[4-(4-hydroxypyrido[3,4-d]pyrimidin-2-yl)oxypyrazol-1-yl]piperidin-1-yl]prop-2-en-1-one], the IC50 was 100 to 1000 nM.

Consider `Cn1cnc(-c2nccc3c(O)nc(Oc4ccc(F)c(F)c4)nc23)c1` [Example 81, 2-(3,4-difluorophenoxy)-8-(1-methylimidazol-4-yl)pyrido[3,4-d]pyrimidin-4-ol], for which the IC50 is 100 to 1000 nM.

`CC(C)CCn1cc(Oc2nc(O)c3ccnc(-c4cn(C)cn4)c3n2)cn1` [Example 80, 2-[1-(3-methylbutyl)pyrazol-4-yl]oxy-8-(1-methylimidazol-4-yl)pyrido[3,4-d]pyrimidin-4-ol] gave an IC50 of 100 to 1000 nM.

On to `Cn1cnc(-c2nccc3c(O)nc(Oc4cnn(C5CCOCC5)c4)nc23)c1` [Example 100, 8-(1-methylimidazol-4-yl)-2-[1-(oxan-4-yl)pyrazol-4-yl]oxypyrido[3,4-d]pyrimidin-4-ol], for which the IC50 is 100 to 1000 nM.

`CCn1cc(Oc2nc(O)c3ccncc3n2)cn1` [Example 62, 2-[(1-ethyl-1H-pyrazol-4-yl)oxy]pyrido[3,4-d]pyrimidin-4-ol] yielded a 50% inhibitory concentration (IC50) of at most 100 nM.

The record behind these values is patent US10526327B2, “Histone demethylase inhibitors” (CELGENE QUANTICEL RESEARCH, INC., priority 2013, dated 2020).
